Data: US12465607B2, “ALK inhibitors for treatment of ALK-negative cancer and plasma cell-mediated diseases” (UNIVERSITETET I OSLO, priority 2019, dated 2025)
“Also recorded” adds a separate entry of the source. One block for each molecule: values may come before it.

Tests used:
L363 = assay: Myeloma cell line viability, CCK-8, 24 hr; type: cell-based, human; conditions: Homo sapiens, L-363; L363, 24 hr treatment
Procedure: (§1) The Results are the means of 3 independent experiments. Note the concentration-dependent reduction of viability of myeloma cells.
(§2) The cell lines used were the human multiple myeloma cell lines L363 (DSMZ catalogue number ACC 49), AMO-1 (DSMZ catalogue number ACC 538) and ARH-77 (ATCC CRL-1621).
(§3) Multiple myeloma cell lines were maintained in RPMI-1640 culture medium (Sigma-Aldrich, Buchs, Switzerland) supplemented with 10% heat-inactivated fetal bovine serum (FBS), 100 μg/ml streptomycin and 100 U/ml penicillin/streptomycin (Sigma-Aldrich, Buchs, Switzerland). The bortezomib-resistant cell lines were established and maintained from their parental cell line by continuous drug exposure>12 months to their parental cell lines (Soriano et al, Leukemia 30: 2198-2207, 2016).
(§4) The viability of the cells was determined 24 hr post treatment using Cell Counting Kit-8 (CCK-8; MedChemExpress, NJ, USA) according to the manufacturer's instructions.

L363-BTZ = assay: Myeloma cell line viability, CCK-8, 24 hr; type: cell-based, human; conditions: Homo sapiens; L363-BTZ, 24 hr treatment
Procedure: as §1, §2, §3, §4

multiple myeloma cells = assay: Cytotoxic activity against multiple myeloma cells (FIG. 4, L363, AMO-1 and bortezomib-resistant clones); type: cell-based, human; conditions: FIG. 4, 24 hr treatment
Procedure: as §1, §2, §3, §4

AMO-1-BTZ = assay: Myeloma cell line viability, CCK-8, 24 hr; type: cell-based; conditions: Homo sapiens, 24 hr treatment
Procedure: as §1, §2, §3, §4

AMO-1 = assay: Myeloma cell line viability, CCK-8, 24 hr; type: cell-based; conditions: Homo sapiens, AMO1; AMO-1, 24 hr treatment
Procedure: as §1, §2, §3, §4

[1] = test system: human L363-BTZ (bortezomib-resistant) myeloma cells; assay: Intrafemoral L363-BTZ luciferase xenograft in NSG mice; type: in vivo; conditions: 7 days treatment from day 10; crizotinib 50 mg/kg orally daily; bortezomib 1 mg/kg i.v. twice
Procedure: In this figure, immunocompromised NSG mice were intrafemorally injected with human L363-BTZ (bortezomib-resistant) myeloma cells. The cells were equipped with luciferase for in vivo monitoring of disease progression. After 10 days, mice were treated with bortezomib i.v. twice over a 7 day period and with crizotinib orally every day over the 7 day period. The images on the left show examples of tumour load in the different groups at days 4 and 7 of treatment (days 14 and 17 post tumour inoculation), and the graph on the right depicts the average luciferase signal for each mouse in each cohort (n=4) normalised to day 0 of the treatment (day 10 post tumour inoculation). Statistical significance between the groups was assessed with two-way ANOVA and between the time-points using one-way ANOVA with Tukey post-test.
NSG (NOD-scid IL2Rgamma^null) mice were obtained from The Jackson Laboratory (No. 005557, CA, USA) and kept in isolated ventilated cages with food ad libitum. Age matched (6-8 weeks old) mice were injected with 0.5×10^5 L363-BTZ_Luc+_TdTomato+ multiple myeloma cells (equipped with luciferase vector for monitoring, obtained from Addgene: #72486) into the right femur. Tumour growth was monitored twice over the week following luciferin injection (150 mg/kg, obtained from BioVision, CA, USA). […]

CLL cells = assay: Viability of activated CLL cells from patients, CellTiter-Glo 72 h (IC50, DSS); type: cell-based, human; conditions: CLL cells from 12 new patients
Procedure: CLL cells from patients were stimulated by adherent murine L cells expressing CD40L, BAFF and April for 24 h. The L cells were then removed by immuno-magnetic separation. Washed CLL cells were plated into 384-well plate format (10,000 cells/well) and tested against crizotinib at 5 concentrations in 10-fold dilutions (plates dispensed by an Echo acoustic dispenser, LabCyte Inc., San Jose, CA, USA). The plate was incubated in a humidified environment at 37° C. and 5% CO2. Cell viability was determined after 72 h using the CellTiter-Glo (Promega, Madison, WI, USA) ATP assay according to the manufacturer's instructions and using an Envision 2102 Multilabel reader (PerkinElmer, Shelton, CT, USA). Relative percentage cell viability was calculated by normalising luminescence units for each well to negative (DMSO 0.1%) and positive (100 μM BzCl) control wells. Curve fitting was conducted to obtain IC50 values.
Quantitative scoring of differential drug sensitivity for individual drugs was calculated as drug sensitivity scores (DSS values, Yadav et al., Scientific Reports 4: 5193, 2014). DSS values were calculated for integrated multiple dose-response relationships in high-throughput compound testing as shown.

plasma cells = assay: Viability of in vitro-generated IRF4/BLIMP1 double positive end stage plasma cells; type: cell-based; conditions: Homo sapiens, B-cell, 120 h; B-cells stimulated 5 days, inhibitor day 5-7
Excerpt: Negatively selected normal B-cells from blood bank donors were stimulated with sCD40L, IL-21, IL-4 for 5 days. This protocol allows generation of 10-20% end differentiated plasma cells that express IRF4 and BLIMP1. From day 5-7, cells were exposed to titred crizotinib in A, or ceritinib in B.
In A and B, IRF4 vs BLIMP1 in gated CD19^+ B cells is shown. IRF4 and BLIMP1 double positive cells represent end stage plasma cells. Such plasma cells are gated (blue elliptic region) and percent plasma cells are shown. The conditions without inhibitor (0) and with linear Alk-inhibitor (crizotinib, A; ceritinib, B) are shown for concentrations 0.01 μM, 0.1 μM, 1 μM, 10 μM and 100 μM.

AMO-1 cells = assay: IgA secretion by AMO-1 cells, ELISA of supernatant; type: cell-based, human; conditions: 3 h
Procedure: (§5) In A, HeLa cells expressing flag-tagged LTK were treated with 1 μM of crizotinib or ceritinib for 30 minutes. Afterwards, cells were lysed and immunoblotted against phosphorylated LTK, which is used as a surrogate for the active form of LTK. […] B, HeLa cells were treated with 1 μM ceritinib for 30 minutes followed by fixation and staining for Sec31A to label ERES. Cells were imaged by confocal microscopy and ERES were counted using ImageJ. C, HeLa cells stably expressing mCherry-tagged mannosidase-II RUSH reporter. Cells were treated with biotin to release the reporter from the ER. After 20 min, a time point where most of the reporter has reached the Golgi, cells were fixed and immunostained for GM130 to label the Golgi apparatus. […] D, IgA secreting AMO-1 cells were treated for 3 h with the indicated doses of crizotinib and the amount of IgA in cell supernatant was determined by ELISA.
Right: Secretion of Ig is reduced by ceritinib. The plasma cell line AMO-1 was washed and added to wells (10^6 cells/well) in the presence of titred ceritinib for 3 h. Supernatants were assayed for IgA secreted by the AMO-1 cells by use of the Human IgA ELISA Kit (Abcam, Cambridge, UK).
1×10^6/ml IgA-secreting AMO-1 cells were seeded in fresh medium with increasing doses of compounds of interest for 3 hr. […]

HeLa cells = assay: ER-to-Golgi trafficking in HeLa cells (ERES staining, mannosidase-II RUSH reporter); type: cell-based; conditions: RUSH reporter 20 min after biotin
Procedure: as §5

LTK = target: T1, LTK (Homo sapiens, UniProt P29376); assay: LTK inhibition: immunoblot of phosphorylated LTK in cells expressing LTK; type: cell-based; conditions: FIG. 5A: HeLa cells expressing flag-tagged LTK, 1 μM, 30 minutes
T1 construct: expressed in transfected cells; host or cells: HeLa cells
T1 sequence (P29376 17-864): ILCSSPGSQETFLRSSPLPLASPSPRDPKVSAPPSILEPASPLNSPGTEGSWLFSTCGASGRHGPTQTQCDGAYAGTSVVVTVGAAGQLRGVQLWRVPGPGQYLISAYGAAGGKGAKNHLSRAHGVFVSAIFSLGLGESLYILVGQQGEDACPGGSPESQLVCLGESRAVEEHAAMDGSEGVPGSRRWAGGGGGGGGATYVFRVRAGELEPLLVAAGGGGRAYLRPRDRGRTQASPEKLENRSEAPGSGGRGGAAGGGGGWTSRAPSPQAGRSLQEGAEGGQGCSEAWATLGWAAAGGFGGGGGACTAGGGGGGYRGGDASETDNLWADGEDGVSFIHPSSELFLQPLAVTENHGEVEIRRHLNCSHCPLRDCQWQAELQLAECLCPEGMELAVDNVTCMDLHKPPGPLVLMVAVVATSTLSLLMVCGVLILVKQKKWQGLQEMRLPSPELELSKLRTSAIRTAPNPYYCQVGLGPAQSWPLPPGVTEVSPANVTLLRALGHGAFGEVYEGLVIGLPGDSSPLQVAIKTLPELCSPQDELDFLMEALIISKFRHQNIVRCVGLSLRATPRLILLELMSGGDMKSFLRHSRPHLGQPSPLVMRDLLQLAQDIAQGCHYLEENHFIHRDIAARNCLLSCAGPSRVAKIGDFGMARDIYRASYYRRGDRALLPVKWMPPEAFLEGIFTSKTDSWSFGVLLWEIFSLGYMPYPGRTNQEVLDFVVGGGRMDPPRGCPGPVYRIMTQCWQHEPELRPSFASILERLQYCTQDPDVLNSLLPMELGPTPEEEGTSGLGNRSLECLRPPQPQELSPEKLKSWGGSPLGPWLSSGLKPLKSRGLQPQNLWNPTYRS
Procedure: (§6) Cells were washed twice with PBS and collected in lysis buffer (50 mM Tris-HCl, pH7.4; 1 mM EDTA, 100 mM NaCl, 0.1% SDS and 1% NP-40) supplemented with proteinase and phosphatase inhibitor (Pierce Protease and Phosphatase Inhibitor Mini Tablets, EDTA-free). Lysates were incubated on ice for 10 minutes followed by clearing centrifugation at 20,000×g at 4° C. for 10 min. Supernatants were transferred into fresh tubes and reducing loading buffer was added. Lysates were subjected to SDS-PAGE and transferred onto a nitrocellulose membrane using semi-dry transfer. The membrane was blocked (in ROTI buffer (Roth) or 5% milk in PBS with 0.1% tween) and probed with the appropriate primary antibodies. Subsequently membranes were incubated with horseradish peroxidase-conjugated secondary antibody. Immunoblots were developed using a chemiluminescence reagent (ECL clarity, BioRad) and imaged using ChemiDoc (BioRad).

[2] = test system: Hepatocellular carcinoma cells (HepG2); assay: Apoptosis (cleaved caspase 3 immunoblot) in HepG2 cells with doxorubicin; type: cell-based; conditions: 5 μM doxorubicin alone, 24 h
Procedure: In B, Hepatocellular carcinoma cells (HepG2) were treated with DMSO (untreated) or with increasing concentrations (1, 2 and 5 μM) of doxorubicin for 24 h and apoptosis was assessed by immunoblotting for cleaved caspase 3. […] Cells were also treated with the same concentrations of doxorubicin in the presence of 1 μM crizotinib for 24 h.
as §6

IC50 (L363): 6.12 µM | IC50 (L363-BTZ): 6.22 µM | IC50 (AMO-1-BTZ): 17.6 µM | IC50 (AMO-1): 13.3 µM
Compound: CCc1cc2c(cc1N1CCC(N3CCOCC3)CC1)C(C)(C)c1[nH]c3cc(C#N)ccc3c1C2=O [alectinib, 9-ethyl-6,6-dimethyl-8-(4-morpholin-4-ylpiperidin-1-yl)-11-oxo-5H-benzo[b]carbazole-3-carbonitrile]
cytotoxic activity against multiple myeloma cells (multiple myeloma cells): cytotoxic activity

Compound: CC(C)C[C@H](NC(=O)[C@H](Cc1ccccc1)NC(=O)c1cnccn1)B(O)O [bortezomib]
tumour burden (luciferase signal) [1]: confirmed proteasome inhibitor resistance

Compound: COc1cc(N2CCC(N3CCN(C)CC3)CC2)ccc1Nc1ncc(Cl)c(Nc2ccccc2P(C)(C)=O)n1 [brigatinib, 5-chloro-4-N-(2-dimethylphosphorylphenyl)-2-N-[2-methoxy-4-[4-(4-methylpiperazin-1-yl)piperidin-1-yl]phenyl]pyrimidine-2,4-diamine]
patients with susceptible CLL cells, cut-off DSS=10 (CLL cells): 4/12

IC50 (L363): 1.03 µM | IC50 (L363-BTZ): 0.79 µM | inhibition of LTK (LTK): inhibit LTK | IC50 (AMO-1-BTZ): 2.77 µM | IC50 (AMO-1): 2.09 µM
Compound: Cc1cc(Nc2ncc(Cl)c(Nc3ccccc3S(=O)(=O)C(C)C)n2)c(OC(C)C)cc1C1CCNCC1 [ceritinib, 5-chloro-2-N-(5-methyl-4-piperidin-4-yl-2-propan-2-yloxyphenyl)-4-N-(2-propan-2-ylsulfonylphenyl)pyrimidine-2,4-diamine]
IC50 (plasma cells): < 0.001 µM | immunoglobulin (IgA) secretion (AMO-1 cells): reduced; also recorded: inhibits immunoglobulin secretion | cytotoxic activity against multiple myeloma cells (multiple myeloma cells): cytotoxic activity | ER-to-Golgi trafficking (HeLa cells): inhibits ER-to-Golgi trafficking | patients with susceptible CLL cells, cut-off DSS=10 (CLL cells): 11/12

Compound: COc1cccc2c1C(=O)c1c(O)c3c(c(O)c1C2=O)C[C@@](O)(C(=O)CO)C[C@@H]3O[C@H]1C[C@H](N)[C@H](O)[C@H](C)O1 [doxorubicin]
cell death (cleaved caspase 3) [2]: only weakly induces cell death

Compound: C[C@@H]1CN(C(=O)c2ccc(NC(=O)c3cc(O[C@H](C)c4c(Cl)ccc(F)c4Cl)c(N)nn3)cc2)C[C@H](C)N1 [ensartinib, 6-amino-5-[(1R)-1-(2,6-dichloro-3-fluorophenyl)ethoxy]-N-[4-[(3R,5S)-3,5-dimethylpiperazine-1-carbonyl]phenyl]pyridazine-3-carboxamide]
cytotoxic activity against multiple myeloma cells (multiple myeloma cells): cytotoxic activity | patients with susceptible CLL cells, cut-off DSS=10 (CLL cells): 11/12

Compound: CN1CCN(c2ccc(C(=O)Nc3n[nH]c4ccc(Cc5cc(F)cc(F)c5)cc34)c(NC3CCOCC3)c2)CC1 [entrectinib, N-[5-[(3,5-difluorophenyl)methyl]-1H-indazol-3-yl]-4-(4-methylpiperazin-1-yl)-2-(oxan-4-ylamino)benzamide]
cytotoxic activity against multiple myeloma cells (multiple myeloma cells): cytotoxic activity | patients with susceptible CLL cells, cut-off DSS=10 (CLL cells): 12/12

Compound: C[C@H]1Oc2cc(cnc2N)-c2c(nn(C)c2C#N)CN(C)C(=O)c2ccc(F)cc21 [lorlatinib]
cytotoxic activity against multiple myeloma cells (multiple myeloma cells): did not efficiently kill myeloma cells | patients with susceptible CLL cells, cut-off DSS=10 (CLL cells): 0/12
